# Reference: ChEMBL document CHEMBL5316298, “Discovery of Amphiphilic Xanthohumol Derivatives as Membrane-Targeting Antimicrobials against Methicillin-Resistant Staphylococcus aureus” (J Med Chem, 2023)
# Activity calls are given as the source filed them. No cut-off for these calls is given here.
# Key:
# [1] = tested on: Cell membrane; assay: Disruption of membrane integrity in methicillin-resistant Staphylococcus aureus 3 assessed as appearance of wrinkled cell surface at 16 ug/ml incubated for 240 mins by SEM analysis; assay type: subcellular; conditions: dose 16.0 µg/ml
# [2] = tested on: Staphylococcus aureus; assay: Antibacterial activity against methicillin-resistant Staphylococcus aureus 3 infected in KM mouse assessed as reduction in abscesses inside the skin at 5 mg/kg administered into skin infection site measured after 24 hrs; assay type: functional, organism-based
# [3] = tested on: Staphylococcus aureus; assay: Antibacterial activity against methicillin-resistant Staphylococcus aureus clinical isolate 4 incubated for 16 to 18 hrs by CLSI-based microbroth dilution method; assay type: functional; conditions: time 16-18 hrs
# [4] = tested on: Staphylococcus aureus; assay: Bactericidal activity against methicillin-resistant Staphylococcus aureus 3 at 8 times MIC measured at 2 hrs by plate colony counting method; assay type: functional, organism-based
# [5] = Hemolytic activity in sheep erythrocytes incubated for 1 hr by absorbance based analysis; assay type: toxicity, cell-based, Ovis aries, Erythrocyte
# [6] = tested on: Staphylococcus aureus; assay: Anti-MRSA activity against methicillin-resistant Staphylococcus aureus 3 incubated for 16 to 18 hrs in presence of 0 to 64 ug/ml phosphatidylethanolamine by checkerboard broth dilution method; assay type: functional, organism-based; conditions: time 16-18 hrs
# [7] = tested on: Cell membrane; assay: Induction of membrane depolarization in methicillin-resistant Staphylococcus aureus 3 assessed as increase in fluorescence intensity at 8 to 16 ug/ml measured every 2 mins for 20 mins by DiSC35 dye-based fluorescence assay; assay type: subcellular; conditions: dose 8-16 µg/ml
# [8] = tested on: Staphylococcus aureus; assay: Induction of ROS production in methicillin-resistant Staphylococcus aureus 3 assessed as fold increase in intracellular ROS level at 64 ug/ml incubated for 40 mins by DCFH-DA dye based fluorescence analysis relative to control; assay type: functional
# [9] = tested on: Cell membrane; assay: Disruption of membrane integrity in methicillin-resistant Staphylococcus aureus 3 assessed as appearance of uneven cell surface at 16 ug/ml incubated for 240 mins by SEM analysis; assay type: subcellular; conditions: dose 16.0 µg/ml
# [10] = tested on: Staphylococcus aureus; assay: Antibacterial activity against methicillin-resistant Staphylococcus aureus 3 infected in KM mouse assessed as reduction in abscesses on dorsal surface of skin at 5 mg/kg administered into skin infection site measured after 24 hrs; assay type: functional, organism-based
# [11] = Toxicity in KM mouse assessed as effect on mean corpuscular volume at 20 mg/kg, sc administered into middle dorsum and measured after 24 hrs by routine blood test; assay type: organism-based; conditions: in vivo
# [12] = Toxicity in KM mouse assessed as abnormalities in skin at 5 to 20 mg/kg, sc administered into middle dorsum and measured after 24 hrs; assay type: organism-based; conditions: in vivo, dose 5-20 mg/kg
# [13] = Toxicity in KM mouse infected with methicillin-resistant Staphylococcus aureus 3 assessed as spleen damage at 5 to 10 mg/kg administered into skin infection site measured after 24 hrs by H and E staining based analysis; assay type: organism-based; conditions: in vivo, topical_or_ocular, dose 5-10 mg/kg
# [14] = Toxicity in KM mouse assessed as effect on urea level at 20 mg/kg, sc administered into middle dorsum and measured after 24 hrs by routine blood test; assay type: organism-based; conditions: in vivo
# [15] = tested on: Staphylococcus aureus; assay: Antibacterial activity against methicillin-resistant Staphylococcus aureus clinical isolate 10 incubated for 16 to 18 hrs by CLSI-based microbroth dilution method; assay type: functional; conditions: time 16-18 hrs
# [16] = Toxicity in KM mouse assessed as pathological changes in liver at 20 mg/kg, sc administered into middle dorsum and measured after 24 hrs by H and E staining based analysis; assay type: organism-based; conditions: in vivo
# [17] = Toxicity in KM mouse assessed as mortality at 5 to 80 mg/kg, sc administered into middle dorsum and measured after 24 hrs; assay type: organism-based; conditions: in vivo, dose 5-80 mg/kg
# [18] = tested on: Staphylococcus aureus; assay: Anti-MRSA activity against methicillin-resistant Staphylococcus aureus 3 incubated for 16 to 18 hrs in presence of 0 to 64 ug/ml peptidoglycan by checkerboard broth dilution method; assay type: functional, organism-based; conditions: time 16-18 hrs
# [19] = tested on: Staphylococcus aureus; assay: Anti-MRSA activity against methicillin-resistant Staphylococcus aureus 3 incubated for 16 to 18 hrs in presence of 0 to 32 ug/ml phosphatidylglycerol by checkerboard broth dilution method; assay type: functional; conditions: time 16-18 hrs
# [20] = tested on: Staphylococcus aureus; assay: Bactericidal activity against Staphylococcus aureus ATCC 29213 at 4 times MIC by time kill assay; assay type: functional, organism-based; conditions: time 0-8 hrs, TDE = time-dependent effect
# [21] = Toxicity in KM mouse assessed as effect on hematocrit level at 20 mg/kg, sc administered into middle dorsum and measured after 24 hrs by routine blood test; assay type: organism-based; conditions: in vivo
# [22] = Toxicity in KM mouse assessed as effect on albumin level at 20 mg/kg, sc administered into middle dorsum and measured after 24 hrs by routine blood test; assay type: organism-based; conditions: in vivo
# [23] = tested on: Staphylococcus aureus; assay: Antibacterial activity against methicillin-resistant Staphylococcus aureus 3 infected in KM mouse assessed as reduction in size of abscesses at 5 mg/kg administered into skin infection site measured after 24 hrs; assay type: functional, organism-based
# [24] = tested on: Staphylococcus aureus; assay: Antibacterial activity against methicillin-resistant Staphylococcus aureus clinical isolate 5 incubated for 16 to 18 hrs by CLSI-based microbroth dilution method; assay type: functional; conditions: time 16-18 hrs
# [25] = tested on: Cell membrane; assay: Disruption of membrane integrity in methicillin-resistant Staphylococcus aureus 3 assessed as increase in intense blue fluorescence at 8 times MIC incubated for 4 hrs by DAPI/PI staining based laser confocal microscopic analysis; assay type: subcellular
# [26] = tested on: Staphylococcus aureus; assay: Antibacterial activity against methicillin-resistant Staphylococcus aureus 3 infected in KM mouse assessed as appearance of smoother dorsal skin at 10 mg/kg administered into skin infection site measured after 24 hrs; assay type: functional, organism-based
# [27] = tested on: Staphylococcus aureus; assay: Anti-MRSA activity against methicillin-resistant Staphylococcus aureus 3 incubated for 16 to 18 hrs in presence of 64 ug/ml phosphatidylglycerol by checkerboard broth dilution method (reference value: 1 ug/ml); assay type: functional; conditions: time 16-18 hrs
# [28] = tested on: Staphylococcus aureus; assay: Antibacterial activity against methicillin-resistant Staphylococcus aureus 3 infected in KM mouse assessed as reduction in bacterial load at infection site by measuring colony forming units at 10 mg/kg administered into skin infection site measured after 24 hrs; assay type: functional
# [29] = Toxicity in KM mouse infected with methicillin-resistant Staphylococcus aureus 3 assessed as liver damage at 5 to 10 mg/kg administered into skin infection site measured after 24 hrs by H and E staining based analysis; assay type: organism-based; conditions: in vivo, topical_or_ocular, dose 5-10 mg/kg
# [30] = Toxicity in KM mouse assessed as pathological changes in heart at 20 mg/kg, sc administered into middle dorsum and measured after 24 hrs by H and E staining based analysis; assay type: organism-based; conditions: in vivo
# [31] = Toxicity in KM mouse infected with methicillin-resistant Staphylococcus aureus 3 assessed as histopathological abnormalities in heart at 5 to 10 mg/kg administered into skin infection site measured after 24 hrs by H and E staining based analysis; assay type: organism-based; conditions: in vivo, topical_or_ocular, dose 5-10 mg/kg
# [32] = Toxicity in KM mouse assessed as redness in skin at 40 to 80 mg/kg, sc administered into middle dorsum and measured after 24 hrs; assay type: organism-based; conditions: in vivo, dose 40-80 mg/kg
# [33] = Toxicity in KM mouse assessed as effect on creatinine level at 20 mg/kg, sc administered into middle dorsum and measured after 24 hrs by routine blood test; assay type: organism-based; conditions: in vivo
# [34] = Toxicity in KM mouse assessed as effect on hemoglobin level at 20 mg/kg, sc administered into middle dorsum and measured after 24 hrs by routine blood test; assay type: organism-based; conditions: in vivo
# [35] = Toxicity in KM mouse infected with methicillin-resistant Staphylococcus aureus 3 assessed as vacuolar degeneration in the kidneys at 5 to 10 mg/kg administered into skin infection site measured after 24 hrs by H and E staining based analysis; assay type: organism-based; conditions: in vivo, topical_or_ocular, dose 5-10 mg/kg
# [36] = tested on: Cell membrane; assay: Induction of membrane depolarization in methicillin-resistant Staphylococcus aureus 3 assessed as fold increase in fluorescence intensity at 8 to 16 ug/ml measured after 20 mins by DiSC35 dye-based fluorescence assay relative to control; assay type: subcellular; conditions: dose 8-16 µg/ml
smiles,measurement,setting,value
CCCN(CCC)C(=O)C[N+](C)(C)CCCCOc1ccc(/C=C/C(=O)c2c(OC)cc3c(c2O)C=CC(C)(C)O3)cc1.[Br-],Activity,[1],Active
same,Activity,[2],inactive
same,MIC,[3],2 µg/mL
same,Activity,[4],Active
same,HC50 at 1 h,[5],338 µg/mL
same,Activity,[6],Active
same,Activity,[7],Active
same,fold change (FC),[8]; dose 64 µg/ml,7
same,Activity,[8]; dose 64.0 µg/ml,Active
same,Activity,[9],Active
same,Activity,[10],inactive
same,Activity,[11],Non-Toxic
same,Activity,[12],Non-Toxic
same,Activity,[13],Non-Toxic
same,Activity,[14],Non-Toxic
same,MIC,[15],1 µg/mL
same,Activity,[16],Non-Toxic
same,Activity,[17],Non-Toxic
same,Activity,[18],Active
same,MIC,[19],1 µg/mL
same,Activity,[20],Tde
same,Activity,[21],Non-Toxic
same,Activity,[22],Non-Toxic
same,Activity,[23],Active
same,MIC,[24],1 µg/mL
same,Activity,[25],Active
same,Activity,[26],Active
same,MIC,[27],32 µg/mL
same,Activity,[28],4.5 log10CFU/g
same,Activity,[29],Non-Toxic
same,Activity,[30],Non-Toxic
same,Activity,[31],Non-Toxic
same,Activity,[32],Toxic
same,Activity,[33],Non-Toxic
same,Activity,[34],Non-Toxic
same,Activity,[35],Non-Toxic
same,fold change (FC),[36],6
